In ChEMBL document CHEMBL4680216, “Comparative analysis of the dual EGFR-DNA targeting and growth inhibitory properties of 6-mono-alkylamino- and 6,6-dialkylaminoquinazoline-based type II combi-molecules” (Eur J Med Chem, 2020):
The source made the active and inactive calls. The calls are words filed in the database; no cut-off is given here.

Assays:
[1] = Toxicity in po dosed CD-1 mouse assessed as maximum tolerated dose; type: organism-based; settings: in vivo
[2] = molecular target: T1, Epidermal growth factor receptor (Homo sapiens, UniProt P00533); experiment: Irreversible inhibition of EGFR in human A549 cells at 2 uM preincubated for 2 hrs followed by compound wash out with serum free media followed by EGF stimulation and measured after 30 mins by Western blot analysis; type: cell-based; settings: time 2.5 hrs
T1 sequence (P00533 whole entry): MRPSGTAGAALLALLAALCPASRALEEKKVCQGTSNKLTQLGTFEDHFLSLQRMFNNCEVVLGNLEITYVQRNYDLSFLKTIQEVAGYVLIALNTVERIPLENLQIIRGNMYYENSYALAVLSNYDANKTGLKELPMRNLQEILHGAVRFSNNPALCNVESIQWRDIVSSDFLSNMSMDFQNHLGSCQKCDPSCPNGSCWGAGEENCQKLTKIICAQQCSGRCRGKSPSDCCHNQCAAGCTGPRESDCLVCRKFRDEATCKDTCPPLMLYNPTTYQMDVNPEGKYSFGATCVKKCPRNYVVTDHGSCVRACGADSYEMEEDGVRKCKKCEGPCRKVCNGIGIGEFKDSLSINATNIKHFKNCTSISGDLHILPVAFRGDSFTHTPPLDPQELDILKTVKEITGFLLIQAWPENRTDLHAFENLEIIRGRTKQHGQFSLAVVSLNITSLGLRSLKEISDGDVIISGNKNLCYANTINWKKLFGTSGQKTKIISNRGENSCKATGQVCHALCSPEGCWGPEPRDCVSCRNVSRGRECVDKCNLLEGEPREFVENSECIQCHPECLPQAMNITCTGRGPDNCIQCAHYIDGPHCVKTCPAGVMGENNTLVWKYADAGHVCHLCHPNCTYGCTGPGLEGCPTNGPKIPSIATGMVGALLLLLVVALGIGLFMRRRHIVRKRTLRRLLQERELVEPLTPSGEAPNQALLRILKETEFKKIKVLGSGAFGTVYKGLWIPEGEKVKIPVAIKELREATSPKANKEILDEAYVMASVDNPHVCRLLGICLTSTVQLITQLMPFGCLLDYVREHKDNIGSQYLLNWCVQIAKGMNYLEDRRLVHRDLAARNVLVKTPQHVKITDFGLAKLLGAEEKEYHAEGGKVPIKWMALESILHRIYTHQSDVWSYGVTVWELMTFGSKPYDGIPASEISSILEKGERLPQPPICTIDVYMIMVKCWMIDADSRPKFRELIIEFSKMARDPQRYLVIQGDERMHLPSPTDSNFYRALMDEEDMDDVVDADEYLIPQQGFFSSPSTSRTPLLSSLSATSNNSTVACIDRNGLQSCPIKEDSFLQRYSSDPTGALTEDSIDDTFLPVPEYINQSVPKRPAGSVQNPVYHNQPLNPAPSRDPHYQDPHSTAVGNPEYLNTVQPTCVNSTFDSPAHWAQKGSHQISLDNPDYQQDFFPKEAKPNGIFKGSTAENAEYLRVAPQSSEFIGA

[3] = tested on: NCI-H1975; experiment: Growth inhibition of human NCI-H1975 cells incubated for 5 days by SRB assay; type: functional, cell-based; settings: NCI-H1975, 120 h
[4] = tested on: PC-9; experiment: Growth inhibition of human PC-9 cells incubated for 5 days by SRB assay; type: functional, cell-based; settings: PC-9, 120 h
[5] = tested on: A549; experiment: Growth inhibition of human A549 cells incubated for 5 days by SRB assay; type: functional, cell-based; settings: A549, 120 h
[6] = molecular target: T1, Epidermal growth factor receptor; experiment: Inhibition of EGFR phosphorylation in human PC-9 cells at 1 to 10 uM preincubated for 2 hrs followed by EGF stimulation and measured after 30 mins by Western blot analysis; type: cell-based; settings: dose 1-10 µM, time 2.5 hrs
[7] = molecular target: T1, Epidermal growth factor receptor; experiment: Inhibition of EGFR phosphorylation in human A549 cells at 1 to 10 uM preincubated for 2 hrs followed by EGF stimulation and measured after 30 mins by Western blot analysis; type: cell-based; settings: dose 1-10 µM, time 2.5 hrs
[8] = molecular target: T1, Epidermal growth factor receptor; experiment: Inhibition of EGFR phosphorylation in human PC-9 cells assessed as downregulation MAPK pathway at 1 to 10 uM preincubated for 2 hrs followed by EGF stimulation and measured after 30 mins by Western blot analysis; type: cell-based; settings: dose 1-10 µM, time 2.5 hrs
[9] = molecular target: T1, Epidermal growth factor receptor; experiment: Inhibition of EGFR phosphorylation in human PC-9 cells assessed as downregulation AKT pathway at 1 to 10 uM preincubated for 2 hrs followed by EGF stimulation and measured after 30 mins by Western blot analysis; type: cell-based; settings: dose 1-10 µM, time 2.5 hrs
[10] = molecular target: T1, Epidermal growth factor receptor; experiment: Inhibition of EGFR phosphorylation in human A549 cells assessed as downregulation MAPK pathway at 1 to 10 uM preincubated for 2 hrs followed by EGF stimulation and measured after 30 mins by Western blot analysis; type: cell-based; settings: dose 1-10 µM, time 2.5 hrs
[11] = molecular target: T1, Epidermal growth factor receptor; experiment: Inhibition of EGFR phosphorylation in human A549 cells assessed as downregulation AKT pathway at 1 to 10 uM preincubated for 2 hrs followed by EGF stimulation and measured after 30 mins by Western blot analysis; type: cell-based; settings: dose 1-10 µM, time 2.5 hrs
[12] = tested on: Calf thymus DNA; experiment: Binding affinity to calf thymus DNA assessed as compound hydrolysis at 10 mM after 5 days by LC-MS/MS analysis; type: nucleic-acid assay; settings: Bos taurus, time 5.0 day
[13] = tested on: Calf thymus DNA; experiment: Binding affinity to calf thymus DNA assessed as adenine alkylated adduct formation at 10 mM after 5 days by LC-MS/MS analysis; type: nucleic-acid assay; settings: Bos taurus, time 5.0 day
[14] = tested on: Calf thymus DNA; experiment: Binding affinity to calf thymus DNA assessed as guanine alkylated adduct formation at 10 mM after 5 days by LC-MS/MS analysis; type: nucleic-acid assay; settings: Bos taurus, time 5.0 day
[15] = tested on: A549; experiment: Induction of DNA damage in human A549 cells at 0.1 to 10 uM after 2 hrs by comet assay; type: functional, cell-based; settings: dose 0.1-10 µM
[16] = tested on: NCI-H1975; experiment: Potency index, ratio of gefitinib IC50 to test compound IC50 for growth inhibition of human NCI-H1975 cells; type: functional
[17] = tested on: NCI-H1975; experiment: Potency index, ratio of gefitinib IC50 in presence of chlorambucil to test compound IC50 for growth inhibition of human NCI-H1975 cells; type: functional
[18] = tested on: A549; experiment: Potency index, ratio of gefitinib IC50 to test compound IC50 for growth inhibition of human A549 cells; type: functional
[19] = tested on: A549; experiment: Potency index, ratio of gefitinib IC50 in presence of chlorambucil to test compound IC50 for growth inhibition of human A549 cells; type: functional
[20] = molecular target: T1, Epidermal growth factor receptor; experiment: Inhibition of EGFR (unknown origin) using poly (Glu,Tyr) 4:1 as substrate incubated for 8 mins in presence of ATP by colorimetric analysis
[21] = molecular target: T1, Epidermal growth factor receptor; experiment: Inhibition of EGFR phosphorylation in human NCI-H1975 cells at 1 to 10 uM preincubated for 2 hrs followed by EGF stimulation and measured after 30 mins by Western blot analysis; type: cell-based; settings: dose 1-10 µM, time 2.5 hrs
[22] = molecular target: T1, Epidermal growth factor receptor; experiment: Inhibition of EGFR phosphorylation in human NCI-H1975 cells assessed as downregulation MAPK pathway at 1 to 10 uM preincubated for 2 hrs followed by EGF stimulation and measured after 30 mins by Western blot analysis; type: cell-based; settings: dose 1-10 µM, time 2.5 hrs
[23] = molecular target: T1, Epidermal growth factor receptor; experiment: Inhibition of EGFR phosphorylation in human NCI-H1975 cells assessed as downregulation AKT pathway at 1 to 10 uM preincubated for 2 hrs followed by EGF stimulation and measured after 30 mins by Western blot analysis; type: cell-based; settings: dose 1-10 µM, time 2.5 hrs

SMILES | MTD [1] | inhibition [2] | IC50 [3] | IC50 [4] | IC50 [5] | inhibition [6] | inhibition [7] | inhibition [8] | inhibition [9] | inhibition [10] | inhibition [11] | Activity [12] | Activity [13] | Activity [14] | Activity [15] | also measured
ClCCNc1ccc2ncnc(Nc3cccc(Br)c3)c2c1 | 150 mg/kg | Active | 0.48 µM | 90 nM | 2.06 µM | Active | Active | Active | Active | Active | Active | Active | Active | Active | Active | 
CN(CCCl)c1ccc2ncnc(Nc3cccc(Br)c3)c2c1 | 150 mg/kg | inactive | 2.81 µM | 210 nM | 3.16 µM | Active | Active | Active | Active | Active | Active | Active | Active | Active | Active | Ratio IC50 [16]: 2; Ratio IC50 [17]: 2; Ratio IC50 [18]: 2; Ratio IC50 [19]: 2; IC50 [20]: 504 nM
ClCCN(CCCl)c1ccc2ncnc(Nc3cccc(Br)c3)c2c1 | 150 mg/kg | Active | 6.07 µM | 203 nM | 6.51 µM | Active | Active | Active | Active | Active | Active | Active | Active | Active | Active | inhibition [21]: Active; inhibition [22]: Active; inhibition [23]: Active; IC50 [20]: 1260 nM
O=C(O)CCCc1ccc(N(CCCl)CCCl)cc1 [CHLORAMBUCIL] |  |  | 28.2 µM | 7170 nM | 24.5 µM | inactive | inactive |  |  |  |  |  |  |  | inactive | inhibition [21]: inactive
CC(=O)OCCN(CCOC(C)=O)c1ccc2ncnc(Nc3cccc(Br)c3)c2c1 |  |  | 20.2 µM | 130 nM | 52.6 µM |  |  |  |  |  |  |  |  |  |  | 
CC(=O)OCCN(CCO)c1ccc2ncnc(Nc3cccc(Br)c3)c2c1 |  |  | 16 µM | 86 nM | 48 µM |  |  |  |  |  |  |  |  |  |  | 
OCCN(CCO)c1ccc2ncnc(Nc3cccc(Br)c3)c2c1 |  |  | 18.1 µM | 70 nM | 46.6 µM |  |  |  |  |  |  |  |  |  |  | 
COc1cc2ncnc(Nc3ccc(F)c(Cl)c3)c2cc1OCCCN1CCOCC1 |  |  |  |  |  |  |  |  |  |  |  |  |  |  | inactive | 
CN(CCO)c1ccc2ncnc(Nc3cccc(Br)c3)c2c1 |  |  | 11.3 µM | 103 nM | 34.5 µM |  |  |  |  |  |  |  |  |  |  | 
CC(=O)OCCN(C)c1ccc2ncnc(Nc3cccc(Br)c3)c2c1 |  |  | 9.4 µM | 98 nM | 30.5 µM |  |  |  |  |  |  |  |  |  |  | 
